Measured values reported in ChEMBL document CHEMBL5465560, “Selectivity Literature for EUbOPEN Chemogenomic Library” (2024).

What was measured:
[1] = target: T1, NUAK family SNF1-like kinase 1 (Homo sapiens) (UniProt O60285); test: Selectivity interaction (Adapta Assay) EUB0001632a NUAK1; conditions: at 10 µM
T1 sequence (whole entry): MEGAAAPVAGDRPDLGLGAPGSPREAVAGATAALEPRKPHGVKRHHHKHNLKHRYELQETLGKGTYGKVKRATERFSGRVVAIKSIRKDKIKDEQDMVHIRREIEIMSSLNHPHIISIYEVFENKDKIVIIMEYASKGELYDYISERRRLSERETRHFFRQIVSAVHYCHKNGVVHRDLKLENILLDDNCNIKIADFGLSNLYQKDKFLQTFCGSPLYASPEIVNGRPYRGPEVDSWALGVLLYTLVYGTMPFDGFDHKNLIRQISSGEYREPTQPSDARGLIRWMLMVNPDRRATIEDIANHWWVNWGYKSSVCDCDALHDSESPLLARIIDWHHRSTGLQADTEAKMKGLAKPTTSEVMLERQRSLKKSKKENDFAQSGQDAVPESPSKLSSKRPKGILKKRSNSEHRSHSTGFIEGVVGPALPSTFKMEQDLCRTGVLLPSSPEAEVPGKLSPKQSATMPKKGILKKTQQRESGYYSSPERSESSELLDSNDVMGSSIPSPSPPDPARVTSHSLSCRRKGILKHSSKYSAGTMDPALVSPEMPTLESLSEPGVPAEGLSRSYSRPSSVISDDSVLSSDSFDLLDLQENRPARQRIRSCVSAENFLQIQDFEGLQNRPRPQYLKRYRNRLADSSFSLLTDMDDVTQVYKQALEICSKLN

[2] = target: Mitogen-activated protein kinase 14 (Homo sapiens, UniProt Q16539); test: Selectivity interaction (Kinase panel (Z-LYTE Assay)) EUB0001632a MAPK14; conditions: at 10 µM
[3] = target: T2, Ephrin type-B receptor 2 (Homo sapiens) (UniProt P29323); test: Selectivity interaction (KinomeScan (DiscoverX)) EUB0001049a EPHB2; conditions: at 1 µM
T2 sequence (whole entry): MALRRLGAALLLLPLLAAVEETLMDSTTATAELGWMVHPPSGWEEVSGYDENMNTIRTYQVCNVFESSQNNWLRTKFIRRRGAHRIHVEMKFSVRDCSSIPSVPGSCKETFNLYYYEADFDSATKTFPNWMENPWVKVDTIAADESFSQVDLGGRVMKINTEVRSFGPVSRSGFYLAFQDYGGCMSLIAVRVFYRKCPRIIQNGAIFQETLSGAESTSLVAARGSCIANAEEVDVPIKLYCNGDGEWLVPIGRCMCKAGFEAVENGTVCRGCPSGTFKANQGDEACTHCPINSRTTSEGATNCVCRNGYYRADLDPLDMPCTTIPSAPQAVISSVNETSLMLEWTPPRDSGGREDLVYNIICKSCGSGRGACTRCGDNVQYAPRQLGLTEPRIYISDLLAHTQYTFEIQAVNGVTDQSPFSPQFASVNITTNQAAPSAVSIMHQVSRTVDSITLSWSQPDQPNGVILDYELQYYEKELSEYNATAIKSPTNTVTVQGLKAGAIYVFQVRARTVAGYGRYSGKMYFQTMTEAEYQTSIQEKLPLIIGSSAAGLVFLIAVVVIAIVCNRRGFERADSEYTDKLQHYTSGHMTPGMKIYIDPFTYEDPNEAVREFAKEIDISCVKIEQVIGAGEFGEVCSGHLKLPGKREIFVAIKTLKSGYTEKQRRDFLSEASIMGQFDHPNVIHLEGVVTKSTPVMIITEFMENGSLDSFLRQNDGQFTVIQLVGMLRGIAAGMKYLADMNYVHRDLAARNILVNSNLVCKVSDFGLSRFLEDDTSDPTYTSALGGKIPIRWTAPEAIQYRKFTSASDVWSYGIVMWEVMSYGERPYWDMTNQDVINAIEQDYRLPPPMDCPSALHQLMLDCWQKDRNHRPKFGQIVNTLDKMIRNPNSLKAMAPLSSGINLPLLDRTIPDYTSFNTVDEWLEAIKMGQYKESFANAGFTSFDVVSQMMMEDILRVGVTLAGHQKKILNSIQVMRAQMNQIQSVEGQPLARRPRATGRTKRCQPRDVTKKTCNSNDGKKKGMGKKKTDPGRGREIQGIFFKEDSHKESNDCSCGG

[4] = target: Cyclin-dependent kinase 8 (Homo sapiens, UniProt P49336); test: Selectivity interaction (KinomeScan (DiscoverX)) EUB0001049a CDK8; conditions: at 1 µM
[5] = target: Insulin-like growth factor 1 receptor (Homo sapiens, UniProt P08069); test: Selectivity interaction (Millipore kinase profiler) EUB0000124b IGF1R; conditions: at 10 µM
[6] = target: T3, STE20-related kinase adapter protein alpha (Homo sapiens) (UniProt Q7RTN6); test: Selectivity interaction (ActivX KiNativ screen (kinase selectivity in THP-1 cell lysates)) EUB0000639a STRADA; type: subcellular; conditions: lysate
T3 sequence (whole entry): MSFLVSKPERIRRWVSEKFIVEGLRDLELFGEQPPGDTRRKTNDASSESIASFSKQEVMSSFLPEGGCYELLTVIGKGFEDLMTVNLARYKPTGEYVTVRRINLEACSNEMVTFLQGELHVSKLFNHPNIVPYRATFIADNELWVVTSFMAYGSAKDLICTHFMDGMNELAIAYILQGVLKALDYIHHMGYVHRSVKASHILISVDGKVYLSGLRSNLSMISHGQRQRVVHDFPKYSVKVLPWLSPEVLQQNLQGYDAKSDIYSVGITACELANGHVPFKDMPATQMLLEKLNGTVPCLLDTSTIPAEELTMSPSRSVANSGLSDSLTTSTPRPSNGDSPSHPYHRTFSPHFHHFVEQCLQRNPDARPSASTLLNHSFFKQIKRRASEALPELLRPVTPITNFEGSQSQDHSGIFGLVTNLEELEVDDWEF

Mitogen-activated protein kinase 14, sequence (Q16539 whole entry): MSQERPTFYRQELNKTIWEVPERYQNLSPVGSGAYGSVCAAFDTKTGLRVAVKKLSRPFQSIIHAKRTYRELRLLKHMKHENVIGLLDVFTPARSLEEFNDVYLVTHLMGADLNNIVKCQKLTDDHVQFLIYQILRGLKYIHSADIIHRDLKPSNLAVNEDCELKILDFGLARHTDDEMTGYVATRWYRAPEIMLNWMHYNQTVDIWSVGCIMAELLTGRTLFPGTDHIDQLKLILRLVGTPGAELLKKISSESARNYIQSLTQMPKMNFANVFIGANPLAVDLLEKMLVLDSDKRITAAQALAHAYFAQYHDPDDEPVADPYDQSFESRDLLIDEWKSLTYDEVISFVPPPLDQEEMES
Insulin-like growth factor 1 receptor, sequence (P08069 31-736 limits assumed): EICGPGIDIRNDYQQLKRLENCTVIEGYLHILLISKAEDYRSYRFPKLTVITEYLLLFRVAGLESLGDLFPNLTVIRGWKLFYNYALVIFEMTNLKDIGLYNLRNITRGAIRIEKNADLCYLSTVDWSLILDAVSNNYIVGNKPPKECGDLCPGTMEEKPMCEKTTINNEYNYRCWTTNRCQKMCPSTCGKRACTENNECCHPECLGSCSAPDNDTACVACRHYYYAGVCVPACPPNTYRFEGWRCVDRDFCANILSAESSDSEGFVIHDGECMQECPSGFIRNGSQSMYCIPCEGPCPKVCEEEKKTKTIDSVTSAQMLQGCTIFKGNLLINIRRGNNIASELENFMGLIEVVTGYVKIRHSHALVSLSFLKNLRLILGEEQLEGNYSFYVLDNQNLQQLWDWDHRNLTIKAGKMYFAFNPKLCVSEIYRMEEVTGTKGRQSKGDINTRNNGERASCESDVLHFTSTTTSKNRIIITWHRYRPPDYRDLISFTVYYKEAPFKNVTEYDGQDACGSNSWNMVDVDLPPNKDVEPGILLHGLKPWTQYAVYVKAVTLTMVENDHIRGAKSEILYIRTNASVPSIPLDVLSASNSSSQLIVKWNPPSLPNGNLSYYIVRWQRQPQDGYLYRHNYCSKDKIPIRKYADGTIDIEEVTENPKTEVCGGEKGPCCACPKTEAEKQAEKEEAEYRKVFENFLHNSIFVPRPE
Insulin-like growth factor 1 receptor, sequence (P08069 741-1367 limits assumed): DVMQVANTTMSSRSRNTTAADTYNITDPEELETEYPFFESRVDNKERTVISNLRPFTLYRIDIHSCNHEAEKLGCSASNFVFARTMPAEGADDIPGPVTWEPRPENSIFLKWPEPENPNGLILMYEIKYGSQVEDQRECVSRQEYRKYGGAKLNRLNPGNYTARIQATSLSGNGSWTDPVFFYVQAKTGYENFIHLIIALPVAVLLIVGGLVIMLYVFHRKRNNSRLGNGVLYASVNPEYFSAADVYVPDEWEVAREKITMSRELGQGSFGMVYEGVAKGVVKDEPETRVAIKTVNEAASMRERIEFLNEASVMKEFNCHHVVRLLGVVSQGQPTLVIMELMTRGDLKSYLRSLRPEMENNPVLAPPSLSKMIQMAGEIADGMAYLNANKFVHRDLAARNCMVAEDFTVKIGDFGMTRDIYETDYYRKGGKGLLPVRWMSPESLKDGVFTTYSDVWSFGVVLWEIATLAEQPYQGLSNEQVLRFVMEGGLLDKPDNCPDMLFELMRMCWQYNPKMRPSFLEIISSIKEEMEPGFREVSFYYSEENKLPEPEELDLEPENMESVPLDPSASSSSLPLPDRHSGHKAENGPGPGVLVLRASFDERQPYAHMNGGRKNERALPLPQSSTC
Cyclin-dependent kinase 8, sequence (P49336 whole entry): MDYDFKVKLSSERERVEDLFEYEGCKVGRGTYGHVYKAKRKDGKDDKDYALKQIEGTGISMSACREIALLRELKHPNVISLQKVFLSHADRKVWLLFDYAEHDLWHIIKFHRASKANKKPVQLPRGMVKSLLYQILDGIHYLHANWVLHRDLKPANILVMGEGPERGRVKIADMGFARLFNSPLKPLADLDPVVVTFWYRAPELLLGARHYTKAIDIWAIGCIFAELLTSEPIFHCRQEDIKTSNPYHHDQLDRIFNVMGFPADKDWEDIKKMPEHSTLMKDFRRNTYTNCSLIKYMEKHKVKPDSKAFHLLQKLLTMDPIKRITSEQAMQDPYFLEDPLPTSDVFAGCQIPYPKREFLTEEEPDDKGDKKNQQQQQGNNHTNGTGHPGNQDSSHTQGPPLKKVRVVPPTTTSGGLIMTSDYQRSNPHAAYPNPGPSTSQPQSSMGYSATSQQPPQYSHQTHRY

Work on `Cn1cc(-n2cnc3c(NCc4nc5cc(Cl)c(Cl)cc5[nH]4)nc(N4CCOCC4)nc32)cn1` yielded a % of inhibition [1] of 15.2% and a % of control [2] of -3.84%.
Molecule `COc1cc(Nc2nc(C)cc(-c3cnn4nc(OC)ccc34)n2)cc(C(F)(F)F)c1` has a % of control [3] of 92% and a % of control [4] of 100%.
`CC(=O)Nc1cccc(-n2c(=O)n(C3CC3)c(=O)c3c(Nc4ccc(I)cc4F)n(C)c(=O)c(C)c32)c1` gave a % of control [5] of 95%.
`CC[C@@H]1[C@H](F)C(=O)N[C@@H]1COc1nccc2cc(C(N)=O)c(OC)cc12` [ZIMLOVISERTIB] was tested, and the % of inhibition ([6]; at 0.01 µM) was -13.1%, the % of inhibition ([6]; at 0.04 µM) was 4.6% and the % of inhibition ([6]; at 0.2 µM) was -11.6%. For the same molecule, the % of inhibition ([6]; at 1 µM) was 5.4% and the % of inhibition ([6]; at 5 µM) was 3.6%.
